According to patent publication US11896579B2, “Combination drug” (Chugai Seiyaku Kabushiki Kaisha, priority 2015, dated 2024):

What follows are molecules tested on human non-small cell lung cancer cell line NCI-H2228 which is positive for the ALK fusion gene (assay: NCI-H2228 xenograft tumor volume in SCID mice). Conditions: SCID mice with NCI-H2228 transplant; agent alone: bevacizumab 5 mg/kg i.p. once a week; cisplatin 5 mg/kg i.v. once a week; paclitaxel 12.5 mg/kg i.v. once a week; gemcitabine 60 mg/kg i.p. twice a week.
Assay type: in vivo
Description: In the FIGURE, the horizontal axis represents the number of days elapsed after the transplantation of the cells, and the vertical axis represents the tumor volume and the body weight change rate. Control represents control groups to which a solvent is administered and combo represents combined use groups.

Molecule | change in tumor volume during administration alone
bevacizumab: anti-human VEGF antibody | increases in tumor volume were observed
Nc1ccn([C@@H]2O[C@H](CO)[C@@H](O)C2(F)F)c(=O)n1 [gemcitabine] | No significant change in tumor volume
CC(=O)O[C@H]1C(=O)[C@@]2(C)[C@H]([C@H](OC(=O)c3ccccc3)[C@]3(O)C[C@H](OC(=O)[C@H](O)[C@@H](NC(=O)c4ccccc4)c4ccccc4)C(C)=C1C3(C)C)[C@]1(OC(C)=O)CO[C@@H]1C[C@@H]2O [paclitaxel] | No significant change in tumor volume
N.N.[Cl][Pt][Cl] [cisplatin] | No significant change in tumor volume
